Entries after “also recorded” stand apart in the source; their conditions may differ. Values belong to the compound of their own block, whether it stands above or below them.
What was measured:
[1] = test system: PSA levels; details: Phase I clinical trial, castration resistant PCa; cited from earlier work
[2] = molecular target: T1, AR LBD (Homo sapiens, UniProt P10275); details: cited from earlier work
T1 sequence (P10275 1-920): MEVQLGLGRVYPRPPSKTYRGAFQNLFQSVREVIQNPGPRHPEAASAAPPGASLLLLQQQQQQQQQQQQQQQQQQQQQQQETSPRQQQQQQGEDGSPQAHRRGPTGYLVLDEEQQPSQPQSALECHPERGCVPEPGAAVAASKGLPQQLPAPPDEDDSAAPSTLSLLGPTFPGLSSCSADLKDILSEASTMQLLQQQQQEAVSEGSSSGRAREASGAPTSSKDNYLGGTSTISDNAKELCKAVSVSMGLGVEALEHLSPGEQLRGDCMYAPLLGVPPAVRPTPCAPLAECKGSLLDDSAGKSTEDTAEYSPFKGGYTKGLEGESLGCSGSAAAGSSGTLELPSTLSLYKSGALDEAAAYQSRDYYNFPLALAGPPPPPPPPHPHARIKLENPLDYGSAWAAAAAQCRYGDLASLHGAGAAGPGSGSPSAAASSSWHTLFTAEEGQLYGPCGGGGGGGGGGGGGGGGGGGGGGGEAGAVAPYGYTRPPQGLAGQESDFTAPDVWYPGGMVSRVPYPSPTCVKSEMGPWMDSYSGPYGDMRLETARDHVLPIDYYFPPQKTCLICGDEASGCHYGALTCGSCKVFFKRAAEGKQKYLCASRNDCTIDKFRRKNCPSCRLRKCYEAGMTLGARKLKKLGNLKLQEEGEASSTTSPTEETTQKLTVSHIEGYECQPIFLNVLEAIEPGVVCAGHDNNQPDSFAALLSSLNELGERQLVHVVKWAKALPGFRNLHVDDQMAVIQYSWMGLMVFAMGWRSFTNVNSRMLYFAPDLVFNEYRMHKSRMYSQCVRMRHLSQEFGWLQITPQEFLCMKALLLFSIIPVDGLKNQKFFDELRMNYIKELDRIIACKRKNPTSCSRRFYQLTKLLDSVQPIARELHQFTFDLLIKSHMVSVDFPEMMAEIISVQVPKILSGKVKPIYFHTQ

[3] = Microsomal stability; assay type: in vitro ADME; details: 1 hour incubation with rat microsomes
Protocol: Five hit compounds, representing both the ARTIS and ARTIK categories (c6, c11, c17, c52 and c85), were selected for in vivo tests based on all of the previous assays. Compound c5 was rejected due to very low microsomal stability (<5% after 1 hour incubation with rat microsomes). The toxicity of the compounds was evaluated in a dose escalation assay in which male NIH Swiss mice (n=4) received three sequential intraperitoneal (i.p.) injections of each compound delivered in 3 day intervals. The first dose was 20-fold higher than the in vitro IC50 (20×IC50) for the compound in CWR22R cells recalculated based on mouse weight (see Example 1) and the second and third doses were 50×IC50 and 100×IC50, respectively. On the day after the last injection, half of the mice in each group were sacrificed for gross pathology examination and collection of blood for serum biochemistry assays, which include total protein, glucose, bilirubin, and creatinine levels, activity of liver enzymes, and ion concentrations. The remaining mice were sacrificed and evaluated similarly 7 days after the last compound injection. […] A minor decrease in serum glucose concentration (70-80% of control) was observed on the day after the last compound injection in almost all mice, but glucose levels were normal a week later (data not shown). […]

[4] = test system: CWR22R cells; assay: Cell cycle distribution by propidium iodide staining; assay type: cell-based, human
Protocol: Analysis of cell cycle distribution was based on staining of DNA content by propidium iodide. 10^5 cells were removed from culture dishes using trypsin, washed with PBS and resuspended in 300 μl 3% BSA in PBS, followed by addition of […] 70% ethanol. Cells were kept at −20° C. for several hours and then stained with 10 μg/ml propidium iodide in the presence of 30 μg/ml RNase A for 2 hrs at 37° C. DNA content was assessed using a FACS Calibur instrument and CellQuest software (Becton Dickinson, Franklin Lakes, N.J.).
To test this possibility, we assessed the cell cycle distribution of CWR22R cells treated with both categories of compounds. […] Therefore, different subsets of compounds inhibiting AR-dependent transcription in androgen-independent PCa cells cause either growth arrest or apoptosis in these cells. Whether a compound causes growth arrest or apoptosis is not determined by the potency of the compound as an inhibitor of AR-dependent transcription (i.e., FIG. 2B).

[5] = test system: AR-expressing PCa cell lines (LNCaP, C4-2, CWR22R); assay: Toxicity to AR-expressing PCa cell lines (colony formation / dose-dependent growth inhibition); assay type: cell-based, human
Protocol: (§1) Cell Colony Assay: Cells were plated in 24-well plates at a density allowing 6-7 days of exponential growth before confluency. Medium and compound was replaced every 48 hours to minimize the effect of potential compound instability. After 7 days of incubation in the presence of compound, cells were fixed and stained with methylene blue, followed by extraction of the stain with 1% SDS and spectrophotometry at 650 nm. Each assay was run in triplicate and the difference between control and compound-treated wells was determined using Student's t-test.
Dose-dependent inhibition of cell growth: Cells were plated at 1×10^3 cells per well in 96-well plates. Compounds were added in a dose range from 1 to 20000 nM in two-fold increments. Each dose was tested in triplicate. Controls were 0.1% DMSO (no effect on cell viability) and 50 μM 9-aminoacridine (complete cell death). Cells were incubated for 6 days and then fixed and stained with methylene blue, followed by extraction of the stain with 1% SDS and spectrophotometry at 650 nm. The assay was run two times and, based on the results, the inhibitory concentration of compound suppressing cell growth by 50% as compared to DMSO (IC50) was calculated by the sigmoid approximation method using CalcuSyn software (Biosoft, Chembridge, UK). Confidence intervals were calculated for each sigmoid.
This Example provides a description of the effect of the selected compounds on the growth of PCa cells. To test the toxicity of the identified AR inhibitors towards cells of different origins, we performed colony formation assays using a single dose of each compound (10 μM) on several PCa (LNCaP, C4-2, CWR22R and DU145) and two non-PCa (HT1080 and HeLa) cell lines (FIG. 2A). […] These compounds were not weaker inhibitors of AR transcriptional activity in CWR22R or C4-2 cells than compounds that inhibited growth of the cells. […]

[6] = test system: HT1080, HeLa and DU145 cells; assay: Colony formation assay, non-PCa and AR-negative PCa cells; assay type: cell-based, human; details: 10 μM, 7 days
Protocol: as §1
This Example provides a description of the effect of the selected compounds on the growth of PCa cells. To test the toxicity of the identified AR inhibitors towards cells of different origins, we performed colony formation assays using a single dose of each compound (10 μM) on several PCa (LNCaP, C4-2, CWR22R and DU145) and two non-PCa (HT1080 and HeLa) cell lines (FIG. 2A). […] These compounds were not weaker inhibitors of AR transcriptional activity in CWR22R or C4-2 cells than compounds that inhibited growth of the cells.

SMILES: CNC(=O)c1ccc(N2C(=S)N(c3ccc(C#N)c(C(F)(F)F)c3)C(=O)C2(C)C)cc1F [MDV3100]
PSA levels in patients [1]: demonstrated efficacy in decreasing PSA levels

SMILES: CNC(=O)c1ccc(N2C(=S)N(c3ccc(C#N)c(C(F)(F)F)c3)C(=O)C23CCC3)cc1F [RD162]
partial agonist activity on AR [2]: not displayed | binding to the AR LBD ([2]; non-competitive antagonists): bind with high affinity to the AR LBD

microsomal stability, compound left [3]: < 5%
SMILES: O=C1N=C(Nc2cccc(Cl)c2Cl)SC1=Cc1ccco1 [c5]
changes in cell cycle distribution ([4]; increase in G1, decrease in S phase): cell cycle arrest | cells with sub-G1 DNA content (apoptotic) ([4]; propidium iodide FACS): did not result in appearance of cells with sub-G1 DNA content | toxicity towards AR-expressing PCa cell lines ([5]; colony formation, 10 μM, three AR-expressing PCa cell lines): different degrees of toxicity; also recorded: suppress growth of all | degree of toxicity to PCa cells (killing vs reduced growth) ([5]; dose-dependent toxicity, by day 7): reduced growth as compared to untreated control cells, but not obvious cell death | growth of / toxicity towards non-PCa cells or AR-negative PCa cells (DU145) [6]: no toxicity

Reference: patent US8835447B2, “Method for treating androgen receptor positive cancers” (priority 2009, dated 2014)
